{"source": "patent US20210290548A1", "about": "“FORMULATIONS OF RALTEGRAVIR” (Merck Sharp & Dohme Corp., priority 2018, published 2021)", "origin": "cited, not measured here", "note": "Read-outs that look alike come from different tables or passages of the source."}
{"smiles": "Cc1nnc(C(=O)NC(C)(C)c2nc(C(=O)NCc3ccc(F)cc3)c([O-])c(=O)n2C)o1.[K+]", "note": "[Raltegravir potassium, N-[(4-Fluorophenyl)methyl]-1,6-dihydro5-hydroxy-1-methyl-2-[1-methyl-1-[[(5-methyl-1,3,4-oxadiazol-2-yl)carbonyl]amino]ethyl]-6-oxo-4pyrimidinecarboxamide monopotassium salt]", "values": [{"measurement": "solubility", "setting": "acetonitrile", "result": "very slightly soluble"}, {"measurement": "solubility", "setting": "ethanol", "result": "very slightly soluble"}, {"measurement": "solubility", "setting": "isopropanol", "result": "insoluble"}, {"measurement": "solubility", "setting": "methanol", "result": "slightly soluble"}, {"measurement": "solubility", "setting": "water", "result": "soluble"}]}
